# Source: PMC6934184, “Selective DNA-PKcs inhibition extends the therapeutic index of localized radiotherapy and chemotherapy” (The Journal of Clinical Investigation, 2019)
# Target: T1, PLK1 (Homo sapiens, UniProt P53350)
# T1 construct: purchased Thermo Fisher Scientific (Life Technologies) SelectScreen
# Experiment: SelectScreen Z'LYTE
# Type: biochemical
# Outline: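 SelectScreen broad panel; activity (Z'LYTE, Adapta) plus binding formats. ATP: Km app for CSF1R Z'LYTE; 10 for CAMK1 Adapta. Readout = % per kinase.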
# T1 sequence (P53350 whole entry): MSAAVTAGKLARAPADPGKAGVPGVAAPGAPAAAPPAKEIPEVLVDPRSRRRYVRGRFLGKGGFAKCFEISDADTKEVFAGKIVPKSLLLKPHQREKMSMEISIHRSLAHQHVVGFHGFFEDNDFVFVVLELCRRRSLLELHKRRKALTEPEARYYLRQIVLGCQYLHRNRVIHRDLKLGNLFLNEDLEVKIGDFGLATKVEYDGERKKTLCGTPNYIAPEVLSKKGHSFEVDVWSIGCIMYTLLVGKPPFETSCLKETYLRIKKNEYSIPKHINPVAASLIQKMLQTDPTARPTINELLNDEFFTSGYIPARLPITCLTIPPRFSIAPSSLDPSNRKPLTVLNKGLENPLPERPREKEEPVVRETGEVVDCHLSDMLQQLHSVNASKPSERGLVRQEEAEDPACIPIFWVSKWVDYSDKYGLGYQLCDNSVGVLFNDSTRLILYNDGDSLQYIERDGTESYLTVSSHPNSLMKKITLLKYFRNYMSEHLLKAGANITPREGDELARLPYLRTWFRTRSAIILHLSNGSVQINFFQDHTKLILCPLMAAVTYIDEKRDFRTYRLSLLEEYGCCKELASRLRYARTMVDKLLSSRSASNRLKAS
structure (smiles),measurement,value
CN(C(=O)CN1CCOCC1)c1ccc2sc3c(-c4cccc5c(=O)cc(N6CC7CCC(C6)O7)oc45)cccc3c2c1 [NU5455],inhibition at 1 µM,9.2%
